Test results taken from BigSolDB 2.1.

O=C(O)c1cc([N+](=O)[O-])cc([N+](=O)[O-])c1
solubility (mole fraction)
Conditions | 283.15 K | 288.15 K | 293.15 K | 298.15 K | 303.15 K | 308.15 K | 313.15 K | 318.15 K | 323.15 K
in acetonitrile | 0.00815 | 0.00958 | 0.011 | 0.0129 | 0.0148 | 0.0162 | 0.019 | 0.0218 | 0.0236
in ethanol | 0.0264 | 0.0306 | 0.0346 | 0.0396 | 0.0456 | 0.0524 | 0.0593 | 0.07 | 0.078
in ethyl acetate | 0.0349 | 0.0373 | 0.0399 | 0.0426 | 0.0458 | 0.0495 | 0.0533 | 0.0574 | 0.0627
in isobutanol | 0.00648 | 0.00862 | 0.0129 | 0.0171 | 0.0223 | 0.0265 | 0.031 | 0.0376 | 0.0466
in isopropanol | 0.014 | 0.0167 | 0.0194 | 0.0255 | 0.0315 | 0.0381 | 0.0459 | 0.0548 | 0.0661
in methanol | 0.0321 | 0.0399 | 0.0454 | 0.0502 | 0.059 | 0.0669 | 0.0767 | 0.0843 | 0.0943
in methyl acetate | 0.0378 | 0.0413 | 0.0456 | 0.0498 | 0.054 | 0.0582 | 0.0623 | 0.0664 | 0.0713
in n-butanol | 0.0138 | 0.0163 | 0.0214 | 0.0273 | 0.0329 | 0.0386 | 0.0458 | 0.0537 | 0.0622
in n-butyl acetate | 0.0257 | 0.0262 | 0.0281 | 0.0327 | 0.0341 | 0.04 | 0.0451 | 0.0504 | 0.0562
in n-pentanol | 0.0153 | 0.0173 | 0.0223 | 0.0273 | 0.0321 | 0.0379 | 0.0456 | 0.0531 | 0.0604
in n-propanol | 0.0173 | 0.019 | 0.0224 | 0.0274 | 0.0332 | 0.0397 | 0.0457 | 0.0549 | 0.065
in n-propyl acetate | 0.0281 | 0.0296 | 0.0318 | 0.0354 | 0.04 | 0.0443 | 0.0494 | 0.0548 | 0.0609
in sec-butanol | 0.0139 | 0.0159 | 0.0201 | 0.0263 | 0.0324 | 0.0414 | 0.0503 | 0.0628 | 0.0777
